Experimental data as given in patent US20030125569A1, “Use of packing strip as a holographic data carrier” (priority 2002, published 2003).

Columns and labels:
[1] = Estimated water content of crystalline forms after exposure to an atmosphere of defined relative humidity; format: physicochemical; conditions: (3R,5S)-enantiomer; form obtained from Form E by exposure to defined relative humidity (A: 0 to 20%; B1/B2: 20 to 55%; C: 75%; D: 90%); monosodium salt
Description: The preparation of crystalline polymorphic Forms A, B1, B2, C and D is usually carried out by using Form E as the starting compound and by exposing Form E to an atmosphere having a defined relative humidity. Depending on the relative humidity used the different forms can be obtained.
Form E of Fluvastatin sodium ((3R,5S)-enantiomer) is first exposed to an atmosphere having a relative humidity of 90% for about 4 hours and subsequently to an atmosphere of 0 to 20% for about 90 minutes. This treatment leads to Form A of the (3R,5S)-enantiomer with an estimated water content of 0 to 5%. The above treatment can be carried out in an X-ray diffractometer in which the relative humidity of the atmosphere can be controlled during the measurement. X-ray powder diffraction studies show the product to be polymorphic Form A (see FIG. 1).
Form E of Fluvastatin sodium ((3R,5S)-enantiomer) is first exposed to an atmosphere having a relative humidity of 90% for about 4 hours and subsequently to an atmosphere of 20 to 55% for about 3 hours. This treatment leads to either Form B1 or Form B2 of the (3R,5S)-enantiomer with an estimated water content of 5 to 15%. The above treatment can be carried out in an X-ray diffractometer in which the relative humidity of the atmosphere can be controlled during the measurement. […]

[2] = target: T1, 3-hydroxy-3-methylglutaryl coenzyme A (HMG-CoA) (Homo sapiens, UniProt P04035); conditions: O. Tempkin et al., Tetrahedron 1997, vol. 53, pages 10659-10670; cited from earlier work
T1 sequence (P04035 1-888): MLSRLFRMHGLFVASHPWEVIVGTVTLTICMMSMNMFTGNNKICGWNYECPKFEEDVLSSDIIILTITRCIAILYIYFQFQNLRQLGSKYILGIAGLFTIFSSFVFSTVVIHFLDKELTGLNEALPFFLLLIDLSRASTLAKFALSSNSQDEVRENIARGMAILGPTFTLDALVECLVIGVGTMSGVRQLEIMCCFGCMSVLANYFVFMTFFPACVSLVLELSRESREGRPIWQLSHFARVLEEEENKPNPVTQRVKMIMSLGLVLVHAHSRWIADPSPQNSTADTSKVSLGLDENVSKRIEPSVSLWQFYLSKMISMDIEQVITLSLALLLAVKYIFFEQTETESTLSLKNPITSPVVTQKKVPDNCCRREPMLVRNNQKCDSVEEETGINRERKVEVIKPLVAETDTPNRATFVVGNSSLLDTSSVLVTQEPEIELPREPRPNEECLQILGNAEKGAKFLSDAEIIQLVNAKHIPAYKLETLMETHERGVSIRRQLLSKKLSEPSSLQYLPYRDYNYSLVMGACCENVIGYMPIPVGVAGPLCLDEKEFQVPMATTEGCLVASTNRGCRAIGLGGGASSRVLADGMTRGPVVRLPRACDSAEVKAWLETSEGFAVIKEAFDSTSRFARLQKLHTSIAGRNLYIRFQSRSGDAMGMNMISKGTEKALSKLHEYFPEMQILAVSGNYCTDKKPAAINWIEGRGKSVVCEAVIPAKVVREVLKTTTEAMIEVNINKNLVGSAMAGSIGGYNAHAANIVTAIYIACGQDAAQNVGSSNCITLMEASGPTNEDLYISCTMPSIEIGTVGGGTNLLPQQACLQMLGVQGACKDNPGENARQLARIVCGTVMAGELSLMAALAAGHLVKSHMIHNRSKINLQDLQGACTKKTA

Compound	estimated water content [1] [%]	biological potency among enantiomers [2]
CC(C)n1c(/C=C/[C@@H](O)C[C@@H](O)CC(=O)[O-])c(-c2ccc(F)cc2)c2ccccc21.[Na+] (single isomer, unassigned) [Form D, (3R,5S)- or (3S,5R)-7-(3-(4-fluorophenyl)-1-(1-methylethyl)-1H-indol-2-yl)-3,5-dihydroxy-6-heptenoic acid monosodium salt]	30	–
CC(C)n1c(/C=C/[C@@H](O)C[C@@H](O)CC(=O)[O-])c(-c2ccc(F)cc2)c2ccccc21.[Na+] (single isomer, unassigned; enantiomer 7) [(3R,5S)-enantiomer, 7-(3-(4-fluorophenyl)-1-(1-methylethyl)-1H-indol-2-yl)-3,5-dihydroxy-6-heptenoic acid monosodium salt]	–	biologically most potent enantiomer
